Results reported in patent US6355799B1, “Substituted benzene compounds, process for their preparation, and herbicidal and defoliant compositions containing them” (ISK Americas Incorporated, priority 1997, dated 2002).

Key:
Type in all cases: in vivo
[1] = system: common ragweed (Ambrosia artemisizfolia L., AMBEL); assay: Post-emerge test, greenhouse herbicide activity screening; conditions: post-emerge, 14 days after application, rating scale 0-100
Method in brief: (§1)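 Applied at 15–1000 g ai/ha from acetone in 187 l/ha spray volume. Post-emergence applications included 0.25% v/v non-ionic surfactant and reached plants sown 8–21 days before. Pre-emergence applications were incorporated by surface watering. Efficacy or crop damage was rated on a 0–100 scale after 14 days.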

[2] = system: barnyardgrass (Echinochloa crus-galli, ECHCG); assay: as above; conditions: post-emerge, 14 days after application, rating scale 0-100
Method in brief: as §1

[3] = system: redroot pigweed (Amaranthus retroflexus, AMARE); assay: as above; conditions: post-emerge, 14 days after application, rating scale 0-100
Method in brief: as §1

[4] = system: green foxtail (Setaria viridis, SETVI); assay: as above; conditions: post-emerge, 14 days after application, rating scale 0-100
Method in brief: as §1

[5] = system: velvetleaf (Abutilon theophrasti, ABUTH); assay: as above; conditions: post-emerge, 14 days after application, rating scale 0-100
Method in brief: as §1

[6] = system: large crabgrass (Digitaria sanguinalis, DIGSA); assay: as above; conditions: post-emerge, 14 days after application, rating scale 0-100
Method in brief: as §1

[7] = system: ivyleaf morningglory (Ipomoea hederacea, IPOHE); assay: as above; conditions: post-emerge, 14 days after application, rating scale 0-100
Method in brief: as §1

[8] = system: lambsquarters (Chenopodium album, CHEAL); assay: as above; conditions: post-emerge, 14 days after application, rating scale 0-100
Method in brief: as §1

[9] = system: johnsongrass (Sorghum halepense, SORHA); assay: as above; conditions: post-emerge, 14 days after application, rating scale 0-100
Method in brief: as §1

[10] = system: sicklepod (Cassia obtusifolia, CASOB); assay: as above; conditions: post-emerge, 14 days after application, rating scale 0-100
Method in brief: as §1

[11] = system: common ragweed (Ambrosia artemisizfolia L., AMBEL); assay: Pre-emerge test, greenhouse herbicide activity screening; conditions: rated 14 days after application, 0 = no damage, 100 = complete death
Method in brief: (§2)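 Sandy loam pots; pre-emerge: sown 1 d pre-spray, surface-watered after, then bottom-watered. Post-emerge: sown 8–21 d before, 2–3 leaf stage, + 0.25% v/v NIS, bottom-watered. Acetone, 187 l/ha track spray, 15–1000 g ai/ha. 0–100 injury score, day 14.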

[12] = system: barnyardgrass (Echinochloa crus-galli, ECHCG); assay: as above; conditions: rated 14 days after application, 0 = no damage, 100 = complete death
Method in brief: as §2

[13] = system: green foxtail (Setaria viridis, SETVI); assay: as above; conditions: rated 14 days after application, 0 = no damage, 100 = complete death
Method in brief: as §2

[14] = system: velvetleaf (Abutilon theophrasti, ABUTH); assay: as above; conditions: rated 14 days after application, 0 = no damage, 100 = complete death
Method in brief: as §2

[15] = system: large crabgrass (Digitaria sanguinalis, DIGSA); assay: as above; conditions: rated 14 days after application, 0 = no damage, 100 = complete death
Method in brief: as §2

[16] = system: ivyleaf morningglory (Ipomoea hederacea, IPOHE); assay: as above; conditions: rated 14 days after application, 0 = no damage, 100 = complete death
Method in brief: as §2

[17] = system: lambsquarters (Chenopodium album, CHEAL); assay: as above; conditions: rated 14 days after application, 0 = no damage, 100 = complete death
Method in brief: as §2

[18] = system: johnsongrass (Sorghum halepense, SORHA); assay: as above; conditions: rated 14 days after application, 0 = no damage, 100 = complete death
Method in brief: as §2

[19] = system: sicklepod (Cassia obtusifolia, CASOB); assay: as above; conditions: rated 14 days after application, 0 = no damage, 100 = complete death
Method in brief: as §2

[20] = system: field corn (Zea mays L., var. Dekalb 535, CORN); assay: Pre-emerge test, crop safety; conditions: rated 14 days after application, 0 = no damage, 100 = complete death
Method in brief: (§3)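 Visual ratings on a 0-100 scale (0 no damage, 100 all plants dead) were taken at 14 days after treatment. Rates of 15-1000 g ai/ha in acetone, 187 l/ha, were sprayed onto soil one day after planting (pre-emerge) or onto 2-3 leaf plants with 0.25% v/v surfactant (post-emerge).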

[21] = system: upland rice (Oryza sp., var. Tebonnet, RICE); assay: Pre-emerge test, crop safety; conditions: rated 14 days after application, 0 = no damage, 100 = complete death
Method in brief: as §3

[22] = system: field corn (Zea mays L., var. Dekalb 535, CORN); assay: Post-emerge test, crop safety; conditions: post-emerge, 14 days after application, rating scale 0-100
Method in brief: as §2

[23] = system: upland rice (Oryza sp., var. Tebonnet, RICE); assay: Post-emerge test, crop safety; conditions: post-emerge, 14 days after application, rating scale 0-100
Method in brief: as §2

[24] = system: redroot pigweed (Amaranthus retroflexus, AMARE); assay: Pre-emerge test, greenhouse herbicide activity screening; conditions: rated 14 days after application, 0 = no damage, 100 = complete death
Method in brief: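 Compounds in acetone were track-sprayed at 15-1000 g ai/ha (187 l/ha) on sandy loam pots: pre-emerge one day after seeding, post-emerge at 2-3 leaf stage with 0.25% v/v non-ionic surfactant. Phytotoxicity was rated 14 days later on a 0 (no damage) to 100 (complete death) scale.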

COc1c(Cl)cc(F)c(-n2c(=O)cc(C(F)(F)F)n(C)c2=O)c1NC(=O)c1cc([N+](=O)[O-])cc([N+](=O)[O-])c1 [2-70]
phytotoxicity rating AMBEL ([1]; 63 g ai/ha): 30
phytotoxicity rating AMBEL ([1]; 250 g ai/ha): 30
phytotoxicity rating ECHCG ([2]; 63 g ai/ha): 0
phytotoxicity rating ECHCG ([2]; 250 g ai/ha): 0
phytotoxicity rating AMARE ([3]; 63 g ai/ha): 70
phytotoxicity rating AMARE ([3]; 250 g ai/ha): 70
phytotoxicity rating SETVI ([4]; 63 g ai/ha): 20
phytotoxicity rating SETVI ([4]; 250 g ai/ha): 0
phytotoxicity rating ABUTH ([5]; 63 g ai/ha): 100
phytotoxicity rating ABUTH ([5]; 250 g ai/ha): 100
phytotoxicity rating DIGSA ([6]; 63 g ai/ha): 0
phytotoxicity rating DIGSA ([6]; 250 g ai/ha): 0
phytotoxicity rating IPOHE ([7]; 63 g ai/ha): 60
phytotoxicity rating IPOHE ([7]; 250 g ai/ha): 60
phytotoxicity rating CHEAL ([8]; 63 g ai/ha): 50
phytotoxicity rating CHEAL ([8]; 250 g ai/ha): 70
phytotoxicity rating SORHA ([9]; 63 g ai/ha): 0
phytotoxicity rating SORHA ([9]; 250 g ai/ha): 0
phytotoxicity rating CASOB ([10]; 63 g ai/ha): 10
phytotoxicity rating CASOB ([10]; 250 g ai/ha): 20
Pre-emerge Herbicidal Activity, phytotoxicity rating (0-100), AMBEL ([11]; 63 g ai/ha): 0
Pre-emerge Herbicidal Activity, phytotoxicity rating (0-100), AMBEL ([11]; 250 g ai/ha): 30
Pre-emerge Herbicidal Activity, phytotoxicity rating (0-100), ECHCG ([12]; 63 g ai/ha): 0
Pre-emerge Herbicidal Activity, phytotoxicity rating (0-100), ECHCG ([12]; 250 g ai/ha): 0
Pre-emerge Herbicidal Activity, phytotoxicity rating (0-100), SETVI ([13]; 63 g ai/ha): 0
Pre-emerge Herbicidal Activity, phytotoxicity rating (0-100), SETVI ([13]; 250 g ai/ha): 60
Pre-emerge Herbicidal Activity, phytotoxicity rating (0-100), ABUTH ([14]; 63 g ai/ha): 100
Pre-emerge Herbicidal Activity, phytotoxicity rating (0-100), ABUTH ([14]; 250 g ai/ha): 90
Pre-emerge Herbicidal Activity, phytotoxicity rating (0-100), DIGSA ([15]; 63 g ai/ha): 0
Pre-emerge Herbicidal Activity, phytotoxicity rating (0-100), DIGSA ([15]; 250 g ai/ha): 20
Pre-emerge Herbicidal Activity, phytotoxicity rating (0-100), IPOHE ([16]; 63 g ai/ha): 0
Pre-emerge Herbicidal Activity, phytotoxicity rating (0-100), IPOHE ([16]; 250 g ai/ha): 60
Pre-emerge Herbicidal Activity, phytotoxicity rating (0-100), CHEAL ([17]; 63 g ai/ha): 80
Pre-emerge Herbicidal Activity, phytotoxicity rating (0-100), CHEAL ([17]; 250 g ai/ha): 100
Pre-emerge Herbicidal Activity, phytotoxicity rating (0-100), SORHA ([18]; 63 g ai/ha): 0
Pre-emerge Herbicidal Activity, phytotoxicity rating (0-100), SORHA ([18]; 250 g ai/ha): 0
Pre-emerge Herbicidal Activity, phytotoxicity rating (0-100), CASOB ([19]; 63 g ai/ha): 0
Pre-emerge Herbicidal Activity, phytotoxicity rating (0-100), CASOB ([19]; 250 g ai/ha): 40
Pre-emerge phytotoxicity rating (0-100), crop damage, CORN ([20]; 63 g ai/ha): 0
Pre-emerge phytotoxicity rating (0-100), crop damage, CORN ([20]; 250 g ai/ha): 0
Pre-emerge phytotoxicity rating (0-100), crop damage, RICE ([21]; 63 g ai/ha): 0
Pre-emerge phytotoxicity rating (0-100), crop damage, RICE ([21]; 250 g ai/ha): 10
phytotoxicity rating CORN ([22]; 63 g ai/ha): 0
phytotoxicity rating CORN ([22]; 250 g ai/ha): 0
phytotoxicity rating RICE ([23]; 63 g ai/ha): 0
phytotoxicity rating RICE ([23]; 250 g ai/ha): 0
Pre-emerge Herbicidal Activity, phytotoxicity rating (0-100), AMARE ([24]; 63 g ai/ha): 70
Pre-emerge Herbicidal Activity, phytotoxicity rating (0-100), AMARE ([24]; 250 g ai/ha): 100
